ChEMBL document CHEMBL1909046, “DrugMatrix in vitro pharmacology data”

biological target: Cytochrome P450 3A4 (Homo sapiens, UniProt P08684); conditions: bti-tn-5b1-4; further: in other assays of this panel Not Active means under 50% inhibition at 10 µM
Sequence (P08684 whole entry): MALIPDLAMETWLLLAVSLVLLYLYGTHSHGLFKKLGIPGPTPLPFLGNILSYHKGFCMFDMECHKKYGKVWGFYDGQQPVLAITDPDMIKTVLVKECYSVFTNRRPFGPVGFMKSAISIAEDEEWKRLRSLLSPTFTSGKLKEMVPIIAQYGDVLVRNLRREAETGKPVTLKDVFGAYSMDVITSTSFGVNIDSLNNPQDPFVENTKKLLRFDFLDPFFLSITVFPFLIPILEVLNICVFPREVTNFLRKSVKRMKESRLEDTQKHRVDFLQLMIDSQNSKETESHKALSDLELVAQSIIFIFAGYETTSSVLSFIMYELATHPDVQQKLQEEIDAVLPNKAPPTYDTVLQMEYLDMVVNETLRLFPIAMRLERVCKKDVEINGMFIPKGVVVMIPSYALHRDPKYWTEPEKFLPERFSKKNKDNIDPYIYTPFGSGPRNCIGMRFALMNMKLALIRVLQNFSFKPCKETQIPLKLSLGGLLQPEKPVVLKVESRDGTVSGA

Structure (SMILES)	IC50	Ki
Nc1ccn([C@@H]2CS[C@H](CO)O2)c(=O)n1 [LAMIVUDINE]	Not Active	Not Active
O=S(=O)([O-])CCS.[Na+] [MESNA]	Not Active	Not Active
C#C[C@]1(O)CC[C@H]2[C@@H]3CCc4cc(OC)ccc4[C@H]3CC[C@@]21C [MESTRANOL]	Not Active	Not Active
CC(=O)Nc1cccc(O)c1 [METACETAMOL]	Not Active	Not Active
Cc1ncc([N+](=O)[O-])n1CCO [METRONIDAZOLE]	Not Active	Not Active
Oc1ccc(OCc2ccccc2)cc1 [MONOBENZONE]	Not Active	Not Active
CC(C)(Oc1ccc(C2CCCc3ccccc32)cc1)C(=O)O (stereo unspecified) [NAFENOPIN]	Not Active	Not Active
CC(C)[C@H]1CC[C@H](C(=O)N[C@H](Cc2ccccc2)C(=O)O)CC1 [NATEGLINIDE]	Not Active	Not Active
CCN[C@@H]1C[C@H](N)[C@@H](O[C@H]2OC(CN)=CC[C@H]2N)[C@H](O)[C@H]1O[C@H]1OC[C@](C)(O)[C@H](NC)[C@H]1O [NETILMICIN]	Not Active	Not Active
CCOC(=O)C1=C(C)NC(C)=C(C(=O)OC)C1c1cccc([N+](=O)[O-])c1 (stereo unspecified) [NITRENDIPINE]	Not Active	Not Active
C#C[C@]1(OC(C)=O)CC[C@H]2[C@@H]3CCC4=CC(=O)CC[C@@H]4[C@H]3CC[C@@]21C [NORETHINDRONE ACETATE]	Not Active	Not Active
COc1ccc2[nH]c([S+]([O-])Cc3ncc(C)c(OC)c3C)nc2c1 (stereo unspecified) [OMEPRAZOLE]	Not Active	Not Active

biological target: Mu-type opioid receptor (Homo sapiens, UniProt P35372); experiment: DRUGMATRIX: Opiate mu (OP3, MOP) radioligand binding (ligand: [3H] Diprenorphine); format: cell membranes, CHO-K1, Membrane; conditions: cho-k1; Not Active = under 50% inhibition at 10 µM
Sequence (P35372 whole entry): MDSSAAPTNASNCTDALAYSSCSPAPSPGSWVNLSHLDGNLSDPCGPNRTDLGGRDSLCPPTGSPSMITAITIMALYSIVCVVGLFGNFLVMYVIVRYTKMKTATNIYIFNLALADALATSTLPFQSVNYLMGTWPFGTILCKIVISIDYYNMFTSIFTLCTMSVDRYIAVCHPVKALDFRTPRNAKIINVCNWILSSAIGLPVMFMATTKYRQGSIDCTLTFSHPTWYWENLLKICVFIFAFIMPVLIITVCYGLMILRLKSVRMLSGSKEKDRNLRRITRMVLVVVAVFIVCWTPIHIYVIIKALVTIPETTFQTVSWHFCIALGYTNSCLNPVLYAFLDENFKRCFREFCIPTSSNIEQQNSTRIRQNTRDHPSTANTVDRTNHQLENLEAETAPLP

Structure (SMILES)	IC50
Nc1ccn([C@@H]2CS[C@H](CO)O2)c(=O)n1 [LAMIVUDINE]	Not Active
O=S(=O)([O-])CCS.[Na+] [MESNA]	Not Active
C#C[C@]1(O)CC[C@H]2[C@@H]3CCc4cc(OC)ccc4[C@H]3CC[C@@]21C [MESTRANOL]	Not Active
CC(=O)Nc1cccc(O)c1 [METACETAMOL]	Not Active
Cc1ncc([N+](=O)[O-])n1CCO [METRONIDAZOLE]	Not Active
Oc1ccc(OCc2ccccc2)cc1 [MONOBENZONE]	Not Active
CC(C)(Oc1ccc(C2CCCc3ccccc32)cc1)C(=O)O (stereo unspecified) [NAFENOPIN]	Not Active
CC(C)[C@H]1CC[C@H](C(=O)N[C@H](Cc2ccccc2)C(=O)O)CC1 [NATEGLINIDE]	Not Active
CCN[C@@H]1C[C@H](N)[C@@H](O[C@H]2OC(CN)=CC[C@H]2N)[C@H](O)[C@H]1O[C@H]1OC[C@](C)(O)[C@H](NC)[C@H]1O [NETILMICIN]	Not Active
CCOC(=O)C1=C(C)NC(C)=C(C(=O)OC)C1c1cccc([N+](=O)[O-])c1 (stereo unspecified) [NITRENDIPINE]	Not Active
C#C[C@]1(OC(C)=O)CC[C@H]2[C@@H]3CCC4=CC(=O)CC[C@@H]4[C@H]3CC[C@@]21C [NORETHINDRONE ACETATE]	Not Active
COc1ccc2[nH]c([S+]([O-])Cc3ncc(C)c(OC)c3C)nc2c1 (stereo unspecified) [OMEPRAZOLE]	Not Active

biological target: Epidermal growth factor receptor (Homo sapiens, UniProt P00533); experiment: DRUGMATRIX: Protein Tyrosine Kinase, EGF Receptor enzyme inhibition (substrate: Poly(Glu:Tyr)); format: cell-based, Insect cells; conditions: insect cells; Not Active = under 50% inhibition at 10 µM
Sequence (P00533 whole entry): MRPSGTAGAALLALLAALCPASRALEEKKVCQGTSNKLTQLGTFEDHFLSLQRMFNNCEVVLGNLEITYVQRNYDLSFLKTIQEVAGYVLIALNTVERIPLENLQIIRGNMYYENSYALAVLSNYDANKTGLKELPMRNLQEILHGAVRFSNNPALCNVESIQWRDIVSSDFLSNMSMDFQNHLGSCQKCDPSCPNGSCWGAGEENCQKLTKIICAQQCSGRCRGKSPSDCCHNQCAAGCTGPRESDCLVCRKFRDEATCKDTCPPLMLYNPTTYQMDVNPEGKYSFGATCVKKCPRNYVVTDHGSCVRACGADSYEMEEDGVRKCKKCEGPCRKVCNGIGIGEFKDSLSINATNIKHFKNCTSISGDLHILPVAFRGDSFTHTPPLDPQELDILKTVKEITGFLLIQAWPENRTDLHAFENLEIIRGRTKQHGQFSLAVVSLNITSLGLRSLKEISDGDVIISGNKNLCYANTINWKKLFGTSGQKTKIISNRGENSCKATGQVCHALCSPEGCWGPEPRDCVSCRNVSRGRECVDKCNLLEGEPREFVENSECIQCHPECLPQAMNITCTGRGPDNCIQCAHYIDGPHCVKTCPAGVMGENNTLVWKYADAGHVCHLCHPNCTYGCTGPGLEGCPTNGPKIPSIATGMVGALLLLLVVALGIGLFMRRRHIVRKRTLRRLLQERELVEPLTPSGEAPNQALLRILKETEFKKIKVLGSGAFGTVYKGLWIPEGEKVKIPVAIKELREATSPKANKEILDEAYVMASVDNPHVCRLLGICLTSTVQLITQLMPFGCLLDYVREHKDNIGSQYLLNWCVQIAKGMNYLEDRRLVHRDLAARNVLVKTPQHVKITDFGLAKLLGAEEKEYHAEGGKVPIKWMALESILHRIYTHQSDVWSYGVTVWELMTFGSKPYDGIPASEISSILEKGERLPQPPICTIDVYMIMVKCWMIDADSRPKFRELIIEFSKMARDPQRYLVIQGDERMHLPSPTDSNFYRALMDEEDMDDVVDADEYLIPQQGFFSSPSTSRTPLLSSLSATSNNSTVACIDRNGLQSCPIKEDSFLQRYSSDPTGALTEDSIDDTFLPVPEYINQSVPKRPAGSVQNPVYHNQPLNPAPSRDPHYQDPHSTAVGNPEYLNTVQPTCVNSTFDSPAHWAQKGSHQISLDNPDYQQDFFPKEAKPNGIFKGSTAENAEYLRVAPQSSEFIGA

Structure (SMILES)	IC50
Nc1ccn([C@@H]2CS[C@H](CO)O2)c(=O)n1 [LAMIVUDINE]	Not Active
O=S(=O)([O-])CCS.[Na+] [MESNA]	Not Active
C#C[C@]1(O)CC[C@H]2[C@@H]3CCc4cc(OC)ccc4[C@H]3CC[C@@]21C [MESTRANOL]	Not Active
CC(=O)Nc1cccc(O)c1 [METACETAMOL]	Not Active
Cc1ncc([N+](=O)[O-])n1CCO [METRONIDAZOLE]	Not Active
Oc1ccc(OCc2ccccc2)cc1 [MONOBENZONE]	Not Active
CC(C)(Oc1ccc(C2CCCc3ccccc32)cc1)C(=O)O (stereo unspecified) [NAFENOPIN]	Not Active
CC(C)[C@H]1CC[C@H](C(=O)N[C@H](Cc2ccccc2)C(=O)O)CC1 [NATEGLINIDE]	Not Active
CCN[C@@H]1C[C@H](N)[C@@H](O[C@H]2OC(CN)=CC[C@H]2N)[C@H](O)[C@H]1O[C@H]1OC[C@](C)(O)[C@H](NC)[C@H]1O [NETILMICIN]	Not Active
CCOC(=O)C1=C(C)NC(C)=C(C(=O)OC)C1c1cccc([N+](=O)[O-])c1 (stereo unspecified) [NITRENDIPINE]	Not Active
C#C[C@]1(OC(C)=O)CC[C@H]2[C@@H]3CCC4=CC(=O)CC[C@@H]4[C@H]3CC[C@@]21C [NORETHINDRONE ACETATE]	Not Active
COc1ccc2[nH]c([S+]([O-])Cc3ncc(C)c(OC)c3C)nc2c1 (stereo unspecified) [OMEPRAZOLE]	Not Active

biological target: Vascular endothelial growth factor receptor 1 (Homo sapiens, UniProt P17948); format: cell-based; conditions: huvec; further: in other assays of this panel Not Active means under 50% inhibition at 10 µM
Sequence (P17948 whole entry): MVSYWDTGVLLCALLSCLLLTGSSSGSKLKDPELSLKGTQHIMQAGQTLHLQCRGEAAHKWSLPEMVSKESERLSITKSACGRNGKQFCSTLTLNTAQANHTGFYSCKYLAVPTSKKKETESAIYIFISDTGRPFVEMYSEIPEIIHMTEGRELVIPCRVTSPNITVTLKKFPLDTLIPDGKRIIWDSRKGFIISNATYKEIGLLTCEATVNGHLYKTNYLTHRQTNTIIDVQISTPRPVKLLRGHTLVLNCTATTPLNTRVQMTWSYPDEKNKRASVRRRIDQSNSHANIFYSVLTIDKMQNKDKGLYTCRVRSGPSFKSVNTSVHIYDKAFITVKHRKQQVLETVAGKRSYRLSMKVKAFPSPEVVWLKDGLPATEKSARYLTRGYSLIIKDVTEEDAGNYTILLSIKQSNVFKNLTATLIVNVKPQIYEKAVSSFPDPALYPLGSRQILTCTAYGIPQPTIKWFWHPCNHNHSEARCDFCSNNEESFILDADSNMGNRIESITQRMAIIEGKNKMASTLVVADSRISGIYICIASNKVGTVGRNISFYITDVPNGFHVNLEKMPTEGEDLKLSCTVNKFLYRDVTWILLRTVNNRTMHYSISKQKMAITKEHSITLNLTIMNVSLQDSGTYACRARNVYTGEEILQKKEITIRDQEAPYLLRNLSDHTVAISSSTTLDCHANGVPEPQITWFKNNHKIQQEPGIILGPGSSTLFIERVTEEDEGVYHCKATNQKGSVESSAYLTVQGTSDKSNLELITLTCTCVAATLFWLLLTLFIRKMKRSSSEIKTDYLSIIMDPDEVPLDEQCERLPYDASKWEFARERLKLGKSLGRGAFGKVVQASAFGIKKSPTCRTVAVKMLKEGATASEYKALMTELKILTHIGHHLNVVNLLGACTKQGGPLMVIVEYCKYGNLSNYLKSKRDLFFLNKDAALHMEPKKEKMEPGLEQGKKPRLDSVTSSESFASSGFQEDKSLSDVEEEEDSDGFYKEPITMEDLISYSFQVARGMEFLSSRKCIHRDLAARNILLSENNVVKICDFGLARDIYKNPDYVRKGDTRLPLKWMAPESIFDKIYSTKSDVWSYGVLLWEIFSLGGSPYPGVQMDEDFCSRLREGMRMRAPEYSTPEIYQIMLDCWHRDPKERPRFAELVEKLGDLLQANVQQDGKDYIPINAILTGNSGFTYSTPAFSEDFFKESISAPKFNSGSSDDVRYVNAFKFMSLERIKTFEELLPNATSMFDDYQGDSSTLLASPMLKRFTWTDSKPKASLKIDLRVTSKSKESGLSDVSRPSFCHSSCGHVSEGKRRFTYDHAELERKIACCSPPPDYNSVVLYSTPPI

Structure (SMILES)	IC50
Nc1ccn([C@@H]2CS[C@H](CO)O2)c(=O)n1 [LAMIVUDINE]	Not Active
O=S(=O)([O-])CCS.[Na+] [MESNA]	Not Active
C#C[C@]1(O)CC[C@H]2[C@@H]3CCc4cc(OC)ccc4[C@H]3CC[C@@]21C [MESTRANOL]	Not Active
CC(=O)Nc1cccc(O)c1 [METACETAMOL]	Not Active
Cc1ncc([N+](=O)[O-])n1CCO [METRONIDAZOLE]	Not Active
Oc1ccc(OCc2ccccc2)cc1 [MONOBENZONE]	Not Active
CC(C)(Oc1ccc(C2CCCc3ccccc32)cc1)C(=O)O (stereo unspecified) [NAFENOPIN]	Not Active
CC(C)[C@H]1CC[C@H](C(=O)N[C@H](Cc2ccccc2)C(=O)O)CC1 [NATEGLINIDE]	Not Active
CCN[C@@H]1C[C@H](N)[C@@H](O[C@H]2OC(CN)=CC[C@H]2N)[C@H](O)[C@H]1O[C@H]1OC[C@](C)(O)[C@H](NC)[C@H]1O [NETILMICIN]	Not Active
CCOC(=O)C1=C(C)NC(C)=C(C(=O)OC)C1c1cccc([N+](=O)[O-])c1 (stereo unspecified) [NITRENDIPINE]	Not Active
C#C[C@]1(OC(C)=O)CC[C@H]2[C@@H]3CCC4=CC(=O)CC[C@@H]4[C@H]3CC[C@@]21C [NORETHINDRONE ACETATE]	Not Active
COc1ccc2[nH]c([S+]([O-])Cc3ncc(C)c(OC)c3C)nc2c1 (stereo unspecified) [OMEPRAZOLE]	Not Active

system: not listed separately; experiment: DRUGMATRIX: Serotonin (5-Hydroxytryptamine) 5-HT3 radioligand binding (ligand: [3H] GR-65630); format: cell membranes, Membrane; conditions: hek293; Not Active = under 50% inhibition at 10 µM

Structure (SMILES)	IC50	Ki
Nc1ccn([C@@H]2CS[C@H](CO)O2)c(=O)n1 [LAMIVUDINE]	Not Active	Not Active
O=S(=O)([O-])CCS.[Na+] [MESNA]	Not Active	Not Active
C#C[C@]1(O)CC[C@H]2[C@@H]3CCc4cc(OC)ccc4[C@H]3CC[C@@]21C [MESTRANOL]	Not Active	Not Active
CC(=O)Nc1cccc(O)c1 [METACETAMOL]	Not Active	Not Active
Cc1ncc([N+](=O)[O-])n1CCO [METRONIDAZOLE]	Not Active	Not Active
Oc1ccc(OCc2ccccc2)cc1 [MONOBENZONE]	Not Active	Not Active
CC(C)(Oc1ccc(C2CCCc3ccccc32)cc1)C(=O)O (stereo unspecified) [NAFENOPIN]	Not Active	Not Active
CC(C)[C@H]1CC[C@H](C(=O)N[C@H](Cc2ccccc2)C(=O)O)CC1 [NATEGLINIDE]	Not Active	Not Active
CCN[C@@H]1C[C@H](N)[C@@H](O[C@H]2OC(CN)=CC[C@H]2N)[C@H](O)[C@H]1O[C@H]1OC[C@](C)(O)[C@H](NC)[C@H]1O [NETILMICIN]	Not Active	Not Active
CCOC(=O)C1=C(C)NC(C)=C(C(=O)OC)C1c1cccc([N+](=O)[O-])c1 (stereo unspecified) [NITRENDIPINE]	Not Active	Not Active
C#C[C@]1(OC(C)=O)CC[C@H]2[C@@H]3CCC4=CC(=O)CC[C@@H]4[C@H]3CC[C@@]21C [NORETHINDRONE ACETATE]	Not Active	Not Active
COc1ccc2[nH]c([S+]([O-])Cc3ncc(C)c(OC)c3C)nc2c1 (stereo unspecified) [OMEPRAZOLE]	Not Active	Not Active

biological target: Sigma non-opioid intracellular receptor 1 (Homo sapiens, UniProt Q99720); experiment: DRUGMATRIX: Sigma1 radioligand binding (ligand: [3H] Haloperidol); format: cell membranes, Jurkat, Membrane; conditions: jurkat; Not Active = under 50% inhibition at 10 µM
Sequence (Q99720 whole entry): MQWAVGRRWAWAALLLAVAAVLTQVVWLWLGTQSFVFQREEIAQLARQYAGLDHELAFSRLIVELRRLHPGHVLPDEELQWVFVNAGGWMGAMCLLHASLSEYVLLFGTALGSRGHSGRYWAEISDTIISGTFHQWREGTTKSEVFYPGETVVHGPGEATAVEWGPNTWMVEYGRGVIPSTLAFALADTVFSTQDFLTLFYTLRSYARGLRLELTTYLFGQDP

Structure (SMILES)	IC50
Nc1ccn([C@@H]2CS[C@H](CO)O2)c(=O)n1 [LAMIVUDINE]	Not Active
O=S(=O)([O-])CCS.[Na+] [MESNA]	Not Active
C#C[C@]1(O)CC[C@H]2[C@@H]3CCc4cc(OC)ccc4[C@H]3CC[C@@]21C [MESTRANOL]	Not Active
CC(=O)Nc1cccc(O)c1 [METACETAMOL]	Not Active
Cc1ncc([N+](=O)[O-])n1CCO [METRONIDAZOLE]	Not Active
Oc1ccc(OCc2ccccc2)cc1 [MONOBENZONE]	Not Active
CC(C)(Oc1ccc(C2CCCc3ccccc32)cc1)C(=O)O (stereo unspecified) [NAFENOPIN]	Not Active
CC(C)[C@H]1CC[C@H](C(=O)N[C@H](Cc2ccccc2)C(=O)O)CC1 [NATEGLINIDE]	Not Active
CCN[C@@H]1C[C@H](N)[C@@H](O[C@H]2OC(CN)=CC[C@H]2N)[C@H](O)[C@H]1O[C@H]1OC[C@](C)(O)[C@H](NC)[C@H]1O [NETILMICIN]	Not Active
CCOC(=O)C1=C(C)NC(C)=C(C(=O)OC)C1c1cccc([N+](=O)[O-])c1 (stereo unspecified) [NITRENDIPINE]	Not Active
C#C[C@]1(OC(C)=O)CC[C@H]2[C@@H]3CCC4=CC(=O)CC[C@@H]4[C@H]3CC[C@@]21C [NORETHINDRONE ACETATE]	Not Active
COc1ccc2[nH]c([S+]([O-])Cc3ncc(C)c(OC)c3C)nc2c1 (stereo unspecified) [OMEPRAZOLE]	Not Active
